The text below walks through data of ChEMBL document CHEMBL1127879, “A conformationally restrained series of AT1-selective angiotensin II antagonists” (Bioorg Med Chem Lett, 1994).

The target in the assay is T1, Angiotensin II receptor (AT-1) type-1 (Rattus norvegicus, UniProt P29089+P25095).
T1 sequence (P29089 whole entry): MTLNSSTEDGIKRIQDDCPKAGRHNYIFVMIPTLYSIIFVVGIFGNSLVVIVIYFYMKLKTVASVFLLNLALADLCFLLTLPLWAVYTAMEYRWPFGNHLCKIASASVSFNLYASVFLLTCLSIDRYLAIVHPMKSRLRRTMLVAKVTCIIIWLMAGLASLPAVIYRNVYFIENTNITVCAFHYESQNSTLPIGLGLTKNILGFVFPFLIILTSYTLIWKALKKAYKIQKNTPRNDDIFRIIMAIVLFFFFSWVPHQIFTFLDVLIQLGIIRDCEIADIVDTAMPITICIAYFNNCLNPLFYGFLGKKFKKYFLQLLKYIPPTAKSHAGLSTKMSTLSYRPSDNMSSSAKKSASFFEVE
T1 sequence (P25095 whole entry): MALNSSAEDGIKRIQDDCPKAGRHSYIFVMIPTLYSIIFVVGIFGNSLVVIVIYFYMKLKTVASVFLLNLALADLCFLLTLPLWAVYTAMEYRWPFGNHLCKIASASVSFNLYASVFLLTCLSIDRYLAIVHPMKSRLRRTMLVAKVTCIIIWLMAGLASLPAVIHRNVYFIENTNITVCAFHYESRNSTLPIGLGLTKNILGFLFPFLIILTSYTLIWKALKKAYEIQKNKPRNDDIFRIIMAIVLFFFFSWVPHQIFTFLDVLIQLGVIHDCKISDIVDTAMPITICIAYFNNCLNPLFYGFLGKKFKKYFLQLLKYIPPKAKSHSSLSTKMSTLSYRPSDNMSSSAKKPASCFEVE
In words: Binding affinity against Angiotensin II receptor, type 1 using [125I]Sar-Ile8-AII in rat liver membranes. In kind it is cell membranes, Membrane.

SMILES strings stand for the structures.

For the compound `Cc1cc(C)c2nc(C3CC3)n(C3CCc4cc(-c5ccccc5-c5nn[nH]n5)ccc43)c2n1` (stereo not drawn), the half-maximal inhibitory concentration (IC50) amounted to 0.2 nM.
`CCc1nc2c(C)ccnc2n1C1CCc2cc(-c3ccccc3-c3nn[nH]n3)ccc21` (stereo not drawn) displayed an IC50 of 120 nM.
In the case of `CCCc1nc2c(C)cc(C)nc2n1C1CCc2cc(-c3ccccc3-c3nn[nH]n3)ccc21` (stereo not drawn), the IC50 is 14 nM.
The figure for `CCc1nc2c(C)cc(C)nc2n1C1CCCCc2cc(-c3ccccc3-c3nn[nH]n3)ccc21` (stereo not drawn) is 220 nM; for `CCc1nc2c(C)cc(C)nc2n1C1CCc2cc(-c3ccccc3-c3nn[nH]n3)ccc21` (stereo not drawn) it is 11 nM; for `CCc1nc2c(C)cc(C)nc2n1C1CCCc2cc(-c3ccccc3-c3nn[nH]n3)ccc21` (stereo not drawn) it is 120 nM.
Consider `CCCCc1nc2c(C)cc(C)nc2n1C1CCc2cc(-c3ccccc3-c3nn[nH]n3)ccc21` (stereo not drawn), for which the IC50 is 30 nM.
With `Cc1cc(C)c2nc(C(C)C)n(C3CCc4cc(-c5ccccc5-c5nn[nH]n5)ccc43)c2n1` (stereo not drawn), the IC50 is on record as 70 nM.

The term IC50 denotes the point on the concentration scale where inhibition reaches its midpoint.
